Source: paper PMC7037052, “Predicting the Blood-Brain Barrier Permeability of New Drug-Like Compounds via HPLC with Various Stationary Phases” (Molecules, 2020)

Key:
Type in all cases: physicochemical
[1] = RP-HPLC retention on Purosphere RP-18e (ODS) column, buffer pH 7.4-acetonitrile; conditions: for log kw, ODS: extrapolated to buffer pH 7.4 as mobile phase, 25 °C; for s ODS: slope of Soczewiński-Wachtmeister equation, acetonitrile φ 0.3–0.6
Method: (§1) Retention parameters reported as the log k values were calculated by the expression:(1) logk=log(tR−t0)/t0 where tR and t0 are the retention times of the solute and a non-retained compound (citric acid), respectively. They were used to calculate the log kw values, i.e., logarithms of retention parameter in the buffer as the mobile phase. For this purpose the Soczewiński-Wachtmeister’s equation was used:log k = log kw − sφ(2) where φ is the volume fraction of organic modifier in the mobile phase; k and kw are retention parameters corresponding to mixed effluent and buffer as the mobile phase, respectively. The slope s is characteristic of a given solute and chromatographic system. Strong linear relationships between log k and φ values were found for all the compounds in the range of effluent composition examined (R^2 > 0.9). The log kw values determined for the ODS (log kw, ODS), IAM (log kw, IAM) and Cholester (log kw, Cholester) columns were intercorrelated and the following linear relationships with a very good statistical quality were obtained:log kw, ODS = 0.691(± 0.094) + 0.982(± 0.044) log kw, IAM(3) SD = 0.257; R^2 = 0.8880; N = 65 log kw, ODS = 0.911(± 0.062) + 0.765(± 0.025) log kw, Cholester(4) SD = 0.192; R^2 = 0.9371; N = 65 log kw, IAM = 0.356(± 0.073) + 0.721(± 0.029) log kw, Cholester(5) SD = 0.224; R^2 = 0.9068; N = 65
(§2) Shimadzu Vp (Shimadzu, Izabelin, Poland) liquid chromatographic system equipped with LC 10AT pump, SPD 10A UV-Vis detector, SCL 10A system controller, CTO-10 AS chromatographic oven and Rheodyne injector valve with a 20 µL loop was applied in HPLC measurements. Three stationary phases were employed: • Purosphere RP-18e (ODS), 125 × 4 mm i.d., 5 µm (Merck); • IAM.PC.DD2 100 × 4.6 mm i.d., 10 µm (Regis Chemicals Company, Morton Grove, IL, USA); • Cosmosil Cholester, 75 × 2 mm i.d., 2.5 µm (Genore, Warsaw, Poland).
(§3) As mobile phases buffer-acetonitrile mixtures were used. The buffer was prepared from 0.01 mol L^−1 solutions of Na2HPO4 and citric acid and the pH 7.4 value was fixed before mixing with organic modifier. With the ODS column acetonitrile concentration in the effluent, expressed as a volume fraction (φ, v/v), was changed in the range 0.3–0.6, with the constant step of 0.1. The flow rate was 1 mL min^−1. With the IAM column acetonitrile concentration was changed in the range 0.2–0.5, also with the constant step of 0.1 and the flow rate was 1.3 mL min^−1. With the Cosmosil Cholester column acetonitrile concentration was changed in the range 0.4–0.6, with the constant step of 0.05 and the flow rate was 0.4 mL min^−1. Samples of test compounds were dissolved in acetonitrile—c.a. 0.005 mg mL^−1. […] They were detected under UV light at 210 and 254 nm. All measurements were carried out at 25 °C. The dead time values were measured from non-retained compound (citric acid) peaks. All reported log kw values are the average of at least three independent measurements. The extrapolated retention coefficients (logs kw) achieved by HPLC on ODS, IAM and Cholester stationary phases were used for modelling the log BB permeation of 65 drug-like compounds employed as a whole test set (Table 1).

[2] = RP-HPLC retention on IAM.PC.DD2 (immobilized artificial membrane) column, buffer pH 7.4-acetonitrile; conditions: for log kw, IAM: extrapolated to buffer pH 7.4 as mobile phase, 25 °C; for s IAM: slope of Soczewiński-Wachtmeister equation, acetonitrile φ 0.2–0.5
Method: as §1, §2, §3

[3] = RP-HPLC retention on Cosmosil Cholester column, buffer pH 7.4-acetonitrile; conditions: for log kw, Cholester: extrapolated to buffer pH 7.4 as mobile phase, 25 °C; for s Cholester: slope of Soczewiński-Wachtmeister equation, acetonitrile φ 0.4–0.6
Method: as §1, §2, §3

Cc1ccc(N2CCn3c2nnc(-c2ccccc2)c3=O)cc1 [Compound 32]
log kw, ODS [1]: 2.93 | s ODS [1]: 5.06 | log kw, IAM [2]: 2.22 | s IAM [2]: 4.81 | log kw, Cholester [3]: 2.86 | s Cholester [3]: 4.65

COc1ccc(N2CCn3c2nnc(-c2ccccc2)c3=O)cc1 [Compound 34]
log kw, ODS [1]: 2.59 | s ODS [1]: 4.62 | log kw, IAM [2]: 1.71 | s IAM [2]: 3.91 | log kw, Cholester [3]: 2.27 | s Cholester [3]: 3.80

O=c1c(-c2ccccc2)nnc2n1CCN2c1ccccc1 [Compound 29]
log kw, ODS [1]: 2.49 | s ODS [1]: 4.51 | log kw, IAM [2]: 1.91 | s IAM [2]: 4.22 | log kw, Cholester [3]: 2.34 | s Cholester [3]: 4.02

O=c1c(-c2ccccc2)nnc2n1CCN2c1ccccc1Cl [Compound 37]
log kw, ODS [1]: 2.43 | s ODS [1]: 4.60 | log kw, IAM [2]: 1.73 | s IAM [2]: 3.84 | log kw, Cholester [3]: 1.96 | s Cholester [3]: 3.65

O=c1c(Cc2ccccc2)nnc2n1CCN2c1ccccc1 [Compound 41]
log kw, ODS [1]: 2.90 | s ODS [1]: 5.02 | log kw, IAM [2]: 3.26 | s IAM [2]: 6.45 | log kw, Cholester [3]: 2.23 | s Cholester [3]: 3.75

O=c1c(-c2ccccc2)nnc2n1CCN2c1cccc(Cl)c1 [Compound 38]
log kw, ODS [1]: 3.29 | s ODS [1]: 5.70 | log kw, IAM [2]: 2.64 | s IAM [2]: 5.41 | log kw, Cholester [3]: 3.20 | s Cholester [3]: 5.20

CCOc1ccc(N2CCn3c2nnc(Cc2ccccc2Cl)c3=O)cc1 [Compound 53]
log kw, ODS [1]: 2.93 | s ODS [1]: 5.02 | log kw, IAM [2]: 2.51 | s IAM [2]: 5.17 | log kw, Cholester [3]: 3.21 | s Cholester [3]: 5.15

Cc1ccc(N2CCn3c2nnc(Cc2ccccc2)c3=O)cc1 [Compound 45]
log kw, ODS [1]: 3.35 | s ODS [1]: 5.55 | log kw, IAM [2]: 2.15 | s IAM [2]: 4.69 | log kw, Cholester [3]: 2.74 | s Cholester [3]: 4.59

Cc1ccccc1N1CCn2c1nnc(-c1ccccc1)c2=O [Compound 30]
log kw, ODS [1]: 2.12 | s ODS [1]: 4.01 | log kw, IAM [2]: 1.53 | s IAM [2]: 3.52 | log kw, Cholester [3]: 1.88 | s Cholester [3]: 3.50

Cc1ccc(N2CCn3c2nnc(CCc2ccccc2)c3=O)cc1 [Compound 62]
log kw, ODS [1]: 3.23 | s ODS [1]: 5.44 | log kw, IAM [2]: 2.41 | s IAM [2]: 5.01 | log kw, Cholester [3]: 2.84 | s Cholester [3]: 4.70

COC(=O)Cc1nnc2n(c1=O)CCN2c1ccc(Cl)cc1 [Compound 11]
log kw, ODS [1]: 2.36 | s ODS [1]: 4.44 | log kw, IAM [2]: 1.82 | s IAM [2]: 4.39 | log kw, Cholester [3]: 1.82 | s Cholester [3]: 3.55

COc1ccc(N2CCn3c2nnc(-c2ccco2)c3=O)cc1 [Compound 23]
log kw, ODS [1]: 1.91 | s ODS [1]: 3.82 | log kw, IAM [2]: 1.19 | s IAM [2]: 3.13 | log kw, Cholester [3]: 1.53 | s Cholester [3]: 3.05

CCOc1ccc(N2CCn3c2nnc(Cc2ccc(C)cc2)c3=O)cc1 [Compound 52]
log kw, ODS [1]: 3.14 | s ODS [1]: 5.36 | log kw, IAM [2]: 2.43 | s IAM [2]: 5.02 | log kw, Cholester [3]: 3.07 | s Cholester [3]: 5.02

O=c1c(-c2ccccc2)nnc2n1CCN2c1ccc(Cl)c(Cl)c1 [Compound 40]
log kw, ODS [1]: 3.48 | s ODS [1]: 5.90 | log kw, IAM [2]: 3.26 | s IAM [2]: 6.40 | log kw, Cholester [3]: 3.86 | s Cholester [3]: 6.02

O=c1c(Cc2cccc(Cl)c2)nnc2n1CCN2c1ccc(Cl)cc1 [Compound 59]
log kw, ODS [1]: 3.61 | s ODS [1]: 5.85 | log kw, IAM [2]: 3.15 | s IAM [2]: 6.01 | log kw, Cholester [3]: 3.67 | s Cholester [3]: 5.75

CCc1nnc2n(c1=O)CCN2c1ccccc1Cl [Compound 3]
log kw, ODS [1]: 1.22 | s ODS [1]: 3.02 | log kw, IAM [2]: 0.80 | s IAM [2]: 2.51 | log kw, Cholester [3]: 0.46 | s Cholester [3]: 1.70

O=c1c(CCc2ccccc2)nnc2n1CCN2c1ccccc1 [Compound 61]
log kw, ODS [1]: 2.80 | s ODS [1]: 4.92 | log kw, IAM [2]: 2.07 | s IAM [2]: 4.45 | log kw, Cholester [3]: 2.33 | s Cholester [3]: 4.02

Cc1ccc(N2CCn3c2nnc(Cc2ccc(Cl)cc2)c3=O)cc1 [Compound 50]
log kw, ODS [1]: 3.22 | s ODS [1]: 5.55 | log kw, IAM [2]: 2.81 | s IAM [2]: 5.62 | log kw, Cholester [3]: 3.39 | s Cholester [3]: 5.34

CCOc1ccc(N2CCn3c2nnc(Cc2cccc(Cl)c2)c3=O)cc1 [Compound 54]
log kw, ODS [1]: 3.35 | s ODS [1]: 5.55 | log kw, IAM [2]: 2.73 | s IAM [2]: 5.61 | log kw, Cholester [3]: 3.31 | s Cholester [3]: 5.22

CCOc1ccc(N2CCn3c2nnc(-c2ccccc2)c3=O)cc1 [Compound 35]
log kw, ODS [1]: 3.09 | s ODS [1]: 5.33 | log kw, IAM [2]: 2.14 | s IAM [2]: 4.48 | log kw, Cholester [3]: 2.80 | s Cholester [3]: 4.61

CCOC(=O)Cc1nnc2n(c1=O)CCN2c1ccc(C)cc1 [Compound 13]
log kw, ODS [1]: 2.37 | s ODS [1]: 4.36 | log kw, IAM [2]: 1.70 | s IAM [2]: 3.85 | log kw, Cholester [3]: 1.92 | s Cholester [3]: 3.58

O=c1c(CCc2ccccc2)nnc2n1CCN2c1ccc(Cl)c(Cl)c1 [Compound 65]
log kw, ODS [1]: 4.29 | s ODS [1]: 6.66 | log kw, IAM [2]: 3.40 | s IAM [2]: 6.55 | log kw, Cholester [3]: 4.12 | s Cholester [3]: 6.20

Cc1ccc(N2CCn3c2nnc(Cc2cccc(C)c2)c3=O)cc1 [Compound 47]
log kw, ODS [1]: 3.09 | s ODS [1]: 5.24 | log kw, IAM [2]: 2.59 | s IAM [2]: 5.14 | log kw, Cholester [3]: 3.09 | s Cholester [3]: 5.06

CCOC(=O)Cc1nnc2n(c1=O)CCN2c1ccc(Cl)cc1 [Compound 16]
log kw, ODS [1]: 2.80 | s ODS [1]: 4.88 | log kw, IAM [2]: 2.11 | s IAM [2]: 4.51 | log kw, Cholester [3]: 2.37 | s Cholester [3]: 4.19

O=c1c(-c2ccco2)nnc2n1CCN2c1ccc(Cl)c(Cl)c1 [Compound 27]
log kw, ODS [1]: 3.46 | s ODS [1]: 5.68 | log kw, IAM [2]: 3.23 | s IAM [2]: 6.30 | log kw, Cholester [3]: 2.92 | s Cholester [3]: 4.85

O=c1c(-c2ccco2)nnc2n1CCN2c1cccc(Cl)c1 [Compound 25]
log kw, ODS [1]: 2.75 | s ODS [1]: 4.85 | log kw, IAM [2]: 2.08 | s IAM [2]: 4.55 | log kw, Cholester [3]: 2.36 | s Cholester [3]: 4.05

CCOc1ccc(N2CCn3c2nnc(Cc2ccc(Cl)cc2)c3=O)cc1 [Compound 55]
log kw, ODS [1]: 3.32 | s ODS [1]: 5.66 | log kw, IAM [2]: 2.72 | s IAM [2]: 5.44 | log kw, Cholester [3]: 3.36 | s Cholester [3]: 5.35

COC(=O)Cc1nnc2n(c1=O)CCN2c1ccccc1 [Compound 7]
log kw, ODS [1]: 1.28 | s ODS [1]: 3.09 | log kw, IAM [2]: 0.81 | s IAM [2]: 2.38 | log kw, Cholester [3]: 0.58 | s Cholester [3]: 1.92

CCOC(=O)Cc1nnc2n(c1=O)CCN2c1ccc(Cl)c(Cl)c1 [Compound 17]
log kw, ODS [1]: 3.16 | s ODS [1]: 5.33 | log kw, IAM [2]: 2.42 | s IAM [2]: 5.01 | log kw, Cholester [3]: 2.77 | s Cholester [3]: 4.61
